Results: patent US12485096B2 (CHENLAND NUTRITIONALS, INC., priority 2020, dated 2025)

Assays:
[1] = tested on: Caco-2 cells, HT-29 cells and Raji-B cells; experiment: Cell uptake of curcumin in three-cell model, flow cytometry; settings: curcumin 20 μg/mL, 4 hours; verapamil 300 μg/mL, sodium azide 1 mg/mL, ketoconazole 10 μg/mL
[2] = Dispersion in water (photographs, FIG. 1); type: physicochemical

For `COc1cc(/C=C/C(=O)CC(=O)/C=C/c2ccc(O)c(OC)c2)ccc1O` [Curcumin raw material, Curcumin], the “average value (intake of curcumin by cells, fluorescence)” value [1] was 19.4 and the “dispersion in water (in words)” value [2] was “insoluble in water”.
